# Activity calls are given as the source filed them.
# Columns and labels:
# [1] = HPDE-C7 pancreatic duct cell viability loss – fluorescence, HTS (AID 430); type: functional, cell-based; settings: Homo sapiens
# Streptococcus = test: GAS UMAA2166 growth inhibition – luminescence, BacTiterGlo, counter-screen for streptokinase expression inhibitor project, dose response (AID 1915); type: functional, organism-based;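 note: potency for reduction of bacterial viability or growth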
# Nonstructural protein 1 = Nonstructural protein 1 (Influenza A virus, UniProt Q194T2); type: functional, Influenza A virus (A/California/07/2009(H1N1))
# [2] = system: Streptococcus sp. 'group A'; test: Streptococcus pyogenes SK(-)GAS viability under kanamycin – luminescence, BacTiterGlo, confirmation, counter-screen for streptokinase expression inhibitor project, dose response (AID 1900); type: functional, organism-based
# [3] = viability loss of HPDE-C7K cells – cell-based, fluorescence, HTS, primary screen (AID 431); type: functional; settings: Homo sapiens
# Leucine aminopeptidase = biological target: T1, Leucine aminopeptidase (Plasmodium falciparum 3D7, UniProt Q8IL11); test: P. falciparum M17LAP inhibitors, primary screen, biochemical, fluorogenic H-Leu-NHMec substrate, 1536-well (AID 1619); type: functional
# T1 sequence (Q8IL11 whole entry): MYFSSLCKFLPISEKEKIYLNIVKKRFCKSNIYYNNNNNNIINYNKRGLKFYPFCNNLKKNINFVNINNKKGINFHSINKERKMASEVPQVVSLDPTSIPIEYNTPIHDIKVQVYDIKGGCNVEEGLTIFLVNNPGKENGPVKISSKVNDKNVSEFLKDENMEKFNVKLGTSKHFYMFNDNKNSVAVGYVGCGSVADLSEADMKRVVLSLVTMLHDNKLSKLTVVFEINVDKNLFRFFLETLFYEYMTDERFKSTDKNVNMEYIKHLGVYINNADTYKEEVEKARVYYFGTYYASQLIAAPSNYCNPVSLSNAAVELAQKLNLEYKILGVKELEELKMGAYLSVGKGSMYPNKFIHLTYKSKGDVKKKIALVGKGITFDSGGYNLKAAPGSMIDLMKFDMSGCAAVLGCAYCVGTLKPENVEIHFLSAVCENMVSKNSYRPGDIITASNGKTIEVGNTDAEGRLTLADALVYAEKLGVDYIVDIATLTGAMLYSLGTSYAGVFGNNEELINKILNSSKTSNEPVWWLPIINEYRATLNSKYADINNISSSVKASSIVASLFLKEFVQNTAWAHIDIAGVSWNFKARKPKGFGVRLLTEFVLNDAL
# [4] = P. falciparum Dd2 growth inhibitors, dose response, SYBR Green, cherry-picked samples (AID 1159567); type: functional, cell-based
# [5] = toxicity to human hepatoma HepG2 cells – cell-based, cherry-picked samples, cytotoxicity control, dose response (AID 1159577); type: functional
# [6] = biological target: T2, Voltage-gated N-type calcium channel alpha-1B subunit/Amyloid beta A4 precursor protein-binding family A member 1 (Homo sapiens, UniProt Q00975+Q02410); type: protein assay
# [7] = biological target: T2, Voltage-gated N-type calcium channel alpha-1B subunit/Amyloid beta A4 precursor protein-binding family A member 1; type: protein assay; remark: listed apart in the source
# Aminopeptidase N = biological target: T3, Aminopeptidase N (Plasmodium falciparum FcB1/Columbia, UniProt O96935); test: malaria alanyl aminopeptidase activity blockers – biochemical, fluorogenic H-Leu-NHMec substrate, 1536-well (AID 1445); parameters: species or system Plasmodium falciparum 3D7, 3D7
# T3 sequence (O96935 whole entry): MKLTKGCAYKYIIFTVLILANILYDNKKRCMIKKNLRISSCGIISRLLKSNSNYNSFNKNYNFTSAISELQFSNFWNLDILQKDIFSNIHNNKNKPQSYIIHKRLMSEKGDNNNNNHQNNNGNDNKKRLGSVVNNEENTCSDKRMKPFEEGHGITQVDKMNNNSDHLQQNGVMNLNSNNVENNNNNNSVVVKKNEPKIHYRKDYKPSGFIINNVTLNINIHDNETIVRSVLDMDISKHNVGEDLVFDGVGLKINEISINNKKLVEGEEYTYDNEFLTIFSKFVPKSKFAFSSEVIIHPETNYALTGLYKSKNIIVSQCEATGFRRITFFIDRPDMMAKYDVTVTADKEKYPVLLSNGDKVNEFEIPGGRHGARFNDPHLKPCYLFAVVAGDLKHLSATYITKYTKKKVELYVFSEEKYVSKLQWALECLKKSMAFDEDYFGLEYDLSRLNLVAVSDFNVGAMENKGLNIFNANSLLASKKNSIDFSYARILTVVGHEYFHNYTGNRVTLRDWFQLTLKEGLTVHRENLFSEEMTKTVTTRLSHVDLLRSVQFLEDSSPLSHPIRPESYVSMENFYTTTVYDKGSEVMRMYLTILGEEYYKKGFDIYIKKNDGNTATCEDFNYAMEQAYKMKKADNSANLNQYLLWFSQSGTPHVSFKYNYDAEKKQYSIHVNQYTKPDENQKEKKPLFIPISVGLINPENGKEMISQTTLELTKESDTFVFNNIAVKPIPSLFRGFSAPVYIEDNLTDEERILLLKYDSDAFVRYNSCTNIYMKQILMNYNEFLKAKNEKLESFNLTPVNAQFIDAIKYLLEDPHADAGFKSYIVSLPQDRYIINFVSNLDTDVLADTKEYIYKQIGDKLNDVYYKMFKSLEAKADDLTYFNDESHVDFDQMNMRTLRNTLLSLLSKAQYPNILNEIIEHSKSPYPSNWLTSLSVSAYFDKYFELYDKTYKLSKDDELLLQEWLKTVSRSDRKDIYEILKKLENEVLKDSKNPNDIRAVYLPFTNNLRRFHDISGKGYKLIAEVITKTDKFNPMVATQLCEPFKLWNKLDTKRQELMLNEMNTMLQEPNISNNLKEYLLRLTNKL
# [8] = HEK-293T viability loss after treatment – luminescence, T-cell screen hits, cytotoxicity control for TCR NF-kB inhibitor project, dose response (AID 489026); type: functional, cell-based;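 note: cells exposed to compound about 14 hours before the viability readout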
# [9] = Trypanosoma cruzi growth suppression in host cells – NIH3T3 host cells, beta-gal luminescence, confirmation (AID 2044); type: functional, cell-based;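 note: intracellular parasites grown in NIH/3T3 mouse fibroblasts as host cells; luminescent beta-galactosidase reporter signal from transgenic T. cruzi replicating inside host cells; inhibitors lower the luminescence signal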
# [10] = fluconazole-exposed Candida albicans growth modulators – fluorescence, retest, confirmation (AID 2467); type: functional, cell-based
# [11] = NIH3T3 cell viability loss – ATP luminescence, mouse fibroblasts, counter-screen, dose response (AID 2010); type: functional, cell-based;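 note: cells exposed to compound for about 90 hours before reading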
# [12] = NIH-3T3 fibroblast cytotoxicity, dose response, cytotoxicity control, cell-based, fluorescence, Alamar Blue, secondary assay (AID 2327); type: functional;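 note: NIH-3T3 mouse fibroblasts cultured with fluconazole at 8 µg/mL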
# [13] = biological target: T4, Tyrosine-protein phosphatase non-receptor type 7 (Homo sapiens, UniProt P35236); test: redox-active compounds inhibiting HePTP phosphatase – biochemical, fluorescence, mechanism study (AID 2068); type: functional
# T4 sequence (P35236 whole entry): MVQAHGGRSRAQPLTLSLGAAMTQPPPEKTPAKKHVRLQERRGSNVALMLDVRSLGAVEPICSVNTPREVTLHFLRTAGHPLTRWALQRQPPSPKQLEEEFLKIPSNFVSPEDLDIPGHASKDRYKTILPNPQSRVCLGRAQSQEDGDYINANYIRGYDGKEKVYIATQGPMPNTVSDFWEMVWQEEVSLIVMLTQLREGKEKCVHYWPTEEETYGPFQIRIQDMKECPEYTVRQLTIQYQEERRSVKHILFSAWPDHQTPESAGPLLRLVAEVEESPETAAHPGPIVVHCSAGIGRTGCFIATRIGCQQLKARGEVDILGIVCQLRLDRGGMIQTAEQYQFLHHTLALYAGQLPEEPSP
# [14] = biological target: T5, Long-chain-fatty-acid--AMP ligase FadD28 (Mycobacterium tuberculosis, UniProt P9WQ59); test: Fluorescence polarization aasay to screen for inhibitors that compete for the binding of FadD28 to a bisubstrate Measured in Biochemical System Using Plate Reader - 2147-01_Inhibitor_Dose_CherryPick_Activity.; type: functional, Mycobacterium tuberculosis H37Rv
# T5 sequence (P9WQ59 whole entry): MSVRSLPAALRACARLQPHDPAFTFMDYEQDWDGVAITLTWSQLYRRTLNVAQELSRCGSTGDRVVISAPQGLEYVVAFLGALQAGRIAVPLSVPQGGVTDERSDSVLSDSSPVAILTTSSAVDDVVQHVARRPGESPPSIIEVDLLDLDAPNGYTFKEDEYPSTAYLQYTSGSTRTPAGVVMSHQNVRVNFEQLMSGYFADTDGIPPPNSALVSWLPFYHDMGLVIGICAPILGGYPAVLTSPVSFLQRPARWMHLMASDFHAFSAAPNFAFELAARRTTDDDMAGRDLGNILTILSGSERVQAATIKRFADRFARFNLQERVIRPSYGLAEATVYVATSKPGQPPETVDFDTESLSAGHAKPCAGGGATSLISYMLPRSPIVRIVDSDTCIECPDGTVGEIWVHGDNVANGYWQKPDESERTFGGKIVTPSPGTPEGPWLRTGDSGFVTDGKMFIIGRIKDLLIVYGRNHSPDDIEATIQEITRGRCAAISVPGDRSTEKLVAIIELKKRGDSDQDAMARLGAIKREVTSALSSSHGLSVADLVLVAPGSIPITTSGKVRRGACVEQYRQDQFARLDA
# INS1 = test: INS-1E survival protection against cytokine death – cell-based, luminescence, retest, dose response (AID 449756); type: functional; settings: Rattus norvegicus;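 note: cell death triggered by IL-1 beta plus TNF-alpha plus IFN-gamma mixture; protective hits raise ATP signal compared with cytokine alone wells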
# [15] = HEK-293T cell viability reduction – luminescence, B-cell screen hits, cytotoxicity control for BCR NF-kB inhibitor project, dose response (AID 489021); type: functional, cell-based;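 note: HEK-293T cells carrying an NF-kB luciferase reporter; cells exposed to compound for about 14 hours before viability readout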
# [16] = blockers of HIV-1 ZM109 envelope-driven cell-cell fusion – HeLa effector, CEM target cells, luciferase, cherry-pick, dose response (AID 652058); type: functional, cell-based;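 note: luciferase signal from HIV-1 Env mediated cell-cell fusion of effector and target cells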
# [17] = HIV-1 AD8 envelope cell-cell fusion blockers – cherry-pick, dose response (AID 652062); type: functional, cell-based;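 note: luciferase signal from cell-cell fusion driven by HIV-1 clade B AD8 Env; potency is for inhibitors of fusion seen as a drop in luminescence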
# [18] = blockers of HIV-1 envelope-mediated cell-cell fusion – cherry-pick, dose response (AID 652057); type: functional, cell-based
# T2 sequence (Q00975 whole entry): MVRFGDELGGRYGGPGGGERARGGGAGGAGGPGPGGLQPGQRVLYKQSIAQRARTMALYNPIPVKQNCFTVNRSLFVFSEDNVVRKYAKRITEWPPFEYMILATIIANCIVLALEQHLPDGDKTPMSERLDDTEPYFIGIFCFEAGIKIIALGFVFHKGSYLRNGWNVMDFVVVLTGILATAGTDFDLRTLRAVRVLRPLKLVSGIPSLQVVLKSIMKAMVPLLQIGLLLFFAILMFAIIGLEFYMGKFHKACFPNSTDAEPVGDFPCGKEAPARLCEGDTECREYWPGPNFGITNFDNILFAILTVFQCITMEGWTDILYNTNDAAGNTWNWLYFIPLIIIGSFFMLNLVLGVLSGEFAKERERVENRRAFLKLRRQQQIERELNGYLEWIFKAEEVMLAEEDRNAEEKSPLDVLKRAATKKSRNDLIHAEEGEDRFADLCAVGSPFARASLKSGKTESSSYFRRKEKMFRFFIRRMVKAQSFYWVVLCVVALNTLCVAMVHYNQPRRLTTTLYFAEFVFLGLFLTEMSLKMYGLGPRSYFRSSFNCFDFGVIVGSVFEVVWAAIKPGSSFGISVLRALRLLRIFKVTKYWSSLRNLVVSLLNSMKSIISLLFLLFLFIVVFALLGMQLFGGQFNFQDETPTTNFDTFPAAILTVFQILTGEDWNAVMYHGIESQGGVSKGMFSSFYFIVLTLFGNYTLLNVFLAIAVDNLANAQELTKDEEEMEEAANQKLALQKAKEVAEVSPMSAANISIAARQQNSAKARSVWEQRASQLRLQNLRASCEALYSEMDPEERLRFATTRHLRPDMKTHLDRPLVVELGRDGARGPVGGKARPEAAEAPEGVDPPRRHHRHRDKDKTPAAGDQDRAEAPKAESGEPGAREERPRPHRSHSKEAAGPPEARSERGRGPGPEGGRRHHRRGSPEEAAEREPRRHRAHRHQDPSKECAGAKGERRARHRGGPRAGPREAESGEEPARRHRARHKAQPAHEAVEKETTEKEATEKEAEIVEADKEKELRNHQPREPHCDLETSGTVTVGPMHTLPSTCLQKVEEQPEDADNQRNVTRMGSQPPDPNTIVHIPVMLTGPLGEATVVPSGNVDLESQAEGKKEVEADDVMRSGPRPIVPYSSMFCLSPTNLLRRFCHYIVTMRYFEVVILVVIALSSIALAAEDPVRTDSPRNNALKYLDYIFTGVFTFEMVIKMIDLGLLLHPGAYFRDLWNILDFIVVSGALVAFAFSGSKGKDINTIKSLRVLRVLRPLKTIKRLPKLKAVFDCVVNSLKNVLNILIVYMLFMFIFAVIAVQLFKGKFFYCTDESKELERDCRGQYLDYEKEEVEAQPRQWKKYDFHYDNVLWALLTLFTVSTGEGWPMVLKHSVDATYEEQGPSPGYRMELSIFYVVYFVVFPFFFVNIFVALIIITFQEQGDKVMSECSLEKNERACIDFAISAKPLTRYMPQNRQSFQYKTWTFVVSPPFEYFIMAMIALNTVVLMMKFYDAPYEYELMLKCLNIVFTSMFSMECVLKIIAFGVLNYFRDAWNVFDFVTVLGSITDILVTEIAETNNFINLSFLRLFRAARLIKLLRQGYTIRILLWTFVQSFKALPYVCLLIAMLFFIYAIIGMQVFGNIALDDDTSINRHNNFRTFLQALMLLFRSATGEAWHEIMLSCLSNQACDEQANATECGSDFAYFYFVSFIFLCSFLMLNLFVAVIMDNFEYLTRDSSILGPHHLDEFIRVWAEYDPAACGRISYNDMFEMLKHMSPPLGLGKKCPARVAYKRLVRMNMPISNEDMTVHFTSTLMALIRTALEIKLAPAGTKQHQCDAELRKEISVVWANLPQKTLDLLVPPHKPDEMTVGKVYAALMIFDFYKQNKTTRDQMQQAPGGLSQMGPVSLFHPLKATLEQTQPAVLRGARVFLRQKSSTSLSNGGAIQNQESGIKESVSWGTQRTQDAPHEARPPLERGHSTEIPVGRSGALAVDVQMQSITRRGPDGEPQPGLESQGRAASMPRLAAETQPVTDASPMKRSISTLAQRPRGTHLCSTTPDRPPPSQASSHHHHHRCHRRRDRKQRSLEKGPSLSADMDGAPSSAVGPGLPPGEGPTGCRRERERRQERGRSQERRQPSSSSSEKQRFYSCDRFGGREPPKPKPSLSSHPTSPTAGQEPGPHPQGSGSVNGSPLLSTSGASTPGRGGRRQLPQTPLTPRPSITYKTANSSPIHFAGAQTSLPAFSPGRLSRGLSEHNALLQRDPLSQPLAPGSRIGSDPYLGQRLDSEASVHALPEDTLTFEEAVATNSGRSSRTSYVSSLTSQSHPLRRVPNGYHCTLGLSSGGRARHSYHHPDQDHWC
# T2 sequence (Q02410 whole entry): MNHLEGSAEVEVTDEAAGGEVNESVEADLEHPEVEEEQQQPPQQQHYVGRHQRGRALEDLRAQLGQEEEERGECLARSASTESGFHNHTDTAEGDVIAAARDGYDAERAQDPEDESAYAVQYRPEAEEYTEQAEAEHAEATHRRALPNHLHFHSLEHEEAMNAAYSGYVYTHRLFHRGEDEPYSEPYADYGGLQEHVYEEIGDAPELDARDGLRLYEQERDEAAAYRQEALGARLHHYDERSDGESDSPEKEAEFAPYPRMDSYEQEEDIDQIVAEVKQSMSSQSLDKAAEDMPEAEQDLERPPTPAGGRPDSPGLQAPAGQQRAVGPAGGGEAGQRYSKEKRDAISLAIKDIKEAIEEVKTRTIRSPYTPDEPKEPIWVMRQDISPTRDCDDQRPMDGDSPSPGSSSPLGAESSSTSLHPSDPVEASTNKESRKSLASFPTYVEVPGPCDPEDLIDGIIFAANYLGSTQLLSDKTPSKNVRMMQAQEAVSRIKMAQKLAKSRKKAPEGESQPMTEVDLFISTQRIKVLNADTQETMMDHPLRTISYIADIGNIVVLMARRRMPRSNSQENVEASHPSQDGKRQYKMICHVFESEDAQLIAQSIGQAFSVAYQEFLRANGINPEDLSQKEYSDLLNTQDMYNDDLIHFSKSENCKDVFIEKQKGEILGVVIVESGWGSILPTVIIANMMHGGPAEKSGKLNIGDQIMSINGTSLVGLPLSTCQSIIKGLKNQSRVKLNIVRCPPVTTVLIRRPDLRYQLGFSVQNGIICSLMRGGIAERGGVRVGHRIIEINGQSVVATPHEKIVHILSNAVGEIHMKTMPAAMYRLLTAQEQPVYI
# Sequence of Nonstructural protein 1 (Q194T2 whole entry): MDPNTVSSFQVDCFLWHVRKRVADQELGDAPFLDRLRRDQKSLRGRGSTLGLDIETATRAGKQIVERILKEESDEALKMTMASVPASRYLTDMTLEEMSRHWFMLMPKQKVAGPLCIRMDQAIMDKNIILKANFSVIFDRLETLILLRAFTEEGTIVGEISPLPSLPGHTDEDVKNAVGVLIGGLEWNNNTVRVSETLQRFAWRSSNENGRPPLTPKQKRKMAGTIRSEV
compound,measurement,setting,value
Cc1cccnc1NCc1ccc(O)c2ncccc12,EC50,[1],13.6 µM (active)
same,EC50,Streptococcus,3.33 µM (active)
same,IC50,Nonstructural protein 1,14.1 µM (active)
same,EC50,[2],2.9 µM (active)
same,EC50,[3],10 µM (active)
COc1ccc(NC(=O)Cc2c(F)cccc2Cl)cc1,IC50,Leucine aminopeptidase,13.6 µM (active)
N#C[C@H]1[C@H](c2ccc(C#Cc3ccccc3F)cc2)[C@@H](CO)N1C(=O)C1CCCC1,AC50,[4],4.27 µM (active)
same,AC50,[5],> 39 µM (inactive)
C[C@@H]1CN([C@H](C)CO)C(=O)c2c(c3ccccc3n2C)-c2ccccc2CO[C@@H]1CN(C)Cc1cccc(O)c1,AC50,[4],4.04 µM (active)
same,AC50,[5],17.2 µM (active)
COc1ccc(-c2[nH]ncc2/C=C(\C#N)C(=O)NC2CC2)cc1,IC50,Leucine aminopeptidase,36.9 µM (active)
O=C(CCN1C(=O)/C(=C/c2ccc(Cl)cc2)SC1=S)NC1C=CS(=O)(=O)C1 (stereo not drawn),IC50,[6],8.45 µM (active)
same,IC50,[7],> 50 µM (inactive)
CCOC(=O)c1nnn2c1nc(Nc1cccc(C(F)(F)F)c1)c1ccccc12,IC50,[6],25.1 µM (active)
same,IC50,[7],> 50 µM (inactive)
Cc1c(N2C(=O)C(O)=C(C(=O)c3ccc(Cl)cc3)C2c2ccccc2)c(=O)n(-c2ccccc2)n1C (stereo not drawn),IC50,Aminopeptidase N,62.1 µM (active)
O=C(CSc1ccccc1C(=O)O)NCc1ccc(Cl)cc1,IC50,Leucine aminopeptidase,17.4 µM (active)
O=C(Nc1ccc(-n2ccnc2P(=O)(O)c2ccccc2)cc1)c1ccccc1Br,IC50,Aminopeptidase N,11.2 µM (active)
CCCCCCCn1c2c(c(=N)c3ccccc31)CCC2,IC50,[8],72.2 µM (inactive)
same,EC50,[9],< 0.1 µM (active)
same,EC50,[10],4.4 µM (active)
same,EC50,[11],25.2 µM (active)
same,EC50,cells,< 0.004 µM (active)
same,EC50,[12],> 160 µM (inactive)
Cc1c(C)c2cc(Cl)c(O)c(CN3CCCC(C)C3)c2oc1=O (stereo not drawn),IC50,Aminopeptidase N,43.1 µM (active)
O=C(Nc1ccc2nc(-c3ccco3)c(-c3ccco3)nc2c1)N1CCSCC1,IC50,[13],3.36 µM (active)
CN(C)/C=C/C(=O)c1nnn(C2CCCCC2)c1NC1CCCCC1,EC50,[1],> 20 µM (not active)
same,EC50,[3],> 20 µM (not active)
COC(=O)c1cc(NC(=O)c2ccccc2)c(=O)oc1/C=C/Nc1ccc(Oc2ccccc2)cc1,IC50,[6],6.82 µM (active)
same,IC50,[7],> 50 µM (inactive)
same,AC50,[14],60.3 µM (active)
O=C(NNC(=O)c1ccccc1O)c1ccc(Cl)c(S(=O)(=O)N2CCc3ccccc32)c1,AC50,INS1,4.28 µM (active)
same,IC50,[15],77.9 µM (inactive)
CCCCCCCCc1nnc(SC(C)C(=O)O)[nH]1 (stereo not drawn),IC50,Leucine aminopeptidase,5.32 µM (active)
N#C[C@H]1[C@H](c2ccc(C#CC3CCCCC3)cc2)[C@@H](CO)N1C(=O)Nc1ccc(F)cc1,AC50,[4],4.35 µM (active)
same,AC50,[5],9.27 µM (active)
O=C1c2n[nH]c(-c3ccccc3O)c2C(c2ccccc2F)N1Cc1ccco1 (stereo not drawn),EC50,[1],13.1 µM (active)
same,EC50,[3],15 µM (active)
COc1cccc(S(=O)(=O)N2CCC3(CC2)CN(C(=O)Nc2cccc(F)c2)[C@@H](CO)c2[nH]c4cc(OC)ccc4c23)c1,AC50,[16],6.68 µM (active)
same,AC50,[17],8.03 µM (active)
same,AC50,[18],6.21 µM (active)
COc1ccc(C(=O)N/N=C/c2ccc(OC)c(CN3CCCc4ccccc43)c2)cc1,IC50,[15],> 80 µM (inactive)
Cc1cc(=O)oc2c(CN3CCCCC3)c(O)c(Cl)cc12,IC50,Aminopeptidase N,59.6 µM (active)
